Here are results for 63 molecules from a melting point compilation (Tetko et al.; mined from patent text by program, amines drawn as free bases though some values may be those of a salt).

What is called melting point is the temperature, or range, at which the solid turns liquid. As to `CC(O)=C(C#N)C(=O)Oc1ccc(Cl)cc1`, the melting point is 97 to 100 °C.

In turn, `CC1CCCN(c2cc3nc(C(C)(C)C)sc3cc2N=C=S)C1` (stereo not drawn) returned a melting point of 47 to 52 °C.

`Nc1nc2n(n1)Cc1ccccc1-2` showed a melting point of 193 to 194 °C.

Consider `Sc1ccc2ccncc2c1Cl`, for which the melting point fell in the range of 118 to 122 °C.

In turn, `CCCCCCn1c(-c2ccc3c(c2)OCO3)nc2ccccc21` registered a melting point of 60.5 to 61.6 °C.

With `C=CCOc1ccccc1NC=C1C(=O)N(c2ccc(C(=O)O)cc2)N=C1C`, the melting point amounted to 240 °C.

Regarding `CN(C)C1CN(c2cc3c(cc2F)c(=O)c(C(=O)O)cn3C2CC2)C1`, the melting point was in the range of 255 to 261 °C.

`CCOC(=O)C1=Cc2cc(S(C)=O)ccc2OC1C(F)(F)F` (stereo not drawn) returned a melting point of 92.2 to 98.4 °C.

`O=C(O)c1cc(Oc2c(Br)cc(Br)cc2Br)ccc1[N+](=O)[O-]` gave a melting point of 162 to 170 °C.

On to `CCCC(=NO)c1ccc(C(=O)O)cn1`, for which the melting point lay in the range of 203 to 205 °C.

The molecule `CC(=O)NCC1CC(c2ccc(-n3ccc(C=O)c3)c(F)c2)=NO1` (single isomer, unassigned; (-)) returned a melting point of 155 to 156 °C.

Molecule `CCOc1cccc(CNC(=O)c2nc3scc(COCc4ccc(C(=O)O)cc4)c3c(=O)[nH]2)c1` registered a melting point of 240 °C.

In turn, `CCN1C(=O)C(NC(=O)C(F)(F)F)CCc2c1ccc(Nc1ncc(Cl)c(N[C@@H]3CCCC[C@H]3NS(C)(=O)=O)n1)c2OC` (stereo partly drawn) had a melting point of 160 to 162 °C.

`Brc1ccc(O[C@H]2CCNC[C@H]2c2ccccc2)cc1` (relative stereo): the melting point was 113 to 115 °C.

`N#Cc1ccc(-c2ccc(C(CCC(=O)O)=NO)cc2)cc1` had a melting point of 157 to 159 °C.

In the case of `COc1cccc(-n2[nH]c(Cc3c(C)n(C(=O)c4ccc(Cl)cc4)c4ccc(OC)cc34)cc2=O)c1`, the melting point was in the range of 102 to 104 °C.

Regarding `COC(=O)c1ccc2c(c1)C(=O)C(=Cc1ccc(OC)c(OC)c1OC)O2`, the melting point lay within 181 to 183 °C.

Consider `COc1ccc(CN2C(=O)[C@@H](NC(=O)Cc3ccccc3)[C@H]2COS(=O)(=O)c2ccc(C)cc2)c(OC)c1` (relative stereo), for which the melting point was 109 to 110 °C.

Turning to `COP(=O)(CCC(C)(C)c1ccc(O)cc1O)OC`, the melting point is 142 to 143 °C.

For `CCNC(=O)c1ccc(-c2cnc3c(c2)N(Cc2ccccc2)C(=O)CN3)cc1`, the melting point worked out at 195 °C.

Molecule `CN1C(=O)SC(C)(S(=O)(=O)c2cccc3c(Br)cccc23)C1=O` (stereo not drawn) yielded a melting point of 160 to 161 °C.

Take `CC(C)=CCN(CCC12CC3CC(CC(C3)C1)C2)C(=O)NCCCc1ccncc1`: the melting point was in the range of 93 to 96 °C.

With `CC(C)(C)C(O)(Cn1cncn1)C(Br)=C(Cl)Br` (stereo not drawn), the melting point was in the range of 78 to 81 °C.

`Cc1cc(-n2ncnn2)cc2ccc(=O)[nH]c12` gave a melting point of 264 to 266 °C.

The molecule `Brc1nnnn1Cc1ccccc1` returned a melting point of 54 °C.

Regarding `CS(=O)(=O)c1ccc(-c2nn3c(c2-c2ccc(F)cc2)OCCCC3)cc1`, the melting point is 167 to 168 °C.

The molecule `CCOC(=O)c1c(Cl)c2cscc2[nH]c1=O` came in with a melting point of 157 °C.

Molecule `O=C1N[C@@H](SC(c2ccccc2)(c2ccccc2)c2ccccc2)[C@@H]1CO` (relative stereo) gave a melting point of 160 to 162 °C.

Take `CC(=O)Nc1cnc(Br)c(N)n1`: the melting point was in the range of 218 to 221 °C.

As to `CCN(CC)CCNC(=O)N1CCc2cc(OC)c(OC)cc2C1c1ccccc1` (stereo not drawn), the melting point is 97 to 98 °C.

In the case of `O=C(O)c1cn(C2CC2)c2c(F)c(N3CCC(O)C3)c(F)cc2c1=O` (stereo not drawn), the melting point was in the range of 276 to 278 °C.

`C1CNCCNCCOCCNCCN1` gave a melting point of 80 to 81 °C.

Regarding `CCC(OC(C)=O)c1ccc(Cl)c2nc3n(c12)CCCN3c1ncc(Cl)cc1Cl` (stereo not drawn), the melting point is 157 to 159 °C.

With `N#Cc1ccc(NCc2ccccc2)nc1`, the melting point lay within 133 to 134 °C.

Molecule `Cc1cc2cc(CN3CCC(CCCC(=O)N4CCCCC4)CC3)cnc2cc1NC(=O)c1ccc(-c2ccc(F)cc2)cc1` registered a melting point of 179 °C.

As for `Cn1nc(C(F)(F)F)n(-c2ccc([N+](=O)[O-])cc2Cl)c1=S`, the melting point fell in the range of 152 to 155 °C.

Take `COC(=O)c1cc(C(=O)OC)cc(N(C)C)c1`: the melting point lay within 118 to 121 °C.

`COc1cc2ccc(-c3cc(OCc4ccccc4)c(OC)cc3[N+](=O)[O-])cc2cc1OC`: the melting point fell in the range of 151 to 153 °C.

`CSc1ccc(-c2nnc(Cl)cc2-c2ccccc2)cc1`: the melting point was found to be 158 °C.

In the case of `COc1ccc(C(=O)c2ccc(Br)cc2)c(F)c1`, the melting point is 125 to 126 °C.

`O=[N+]([O-])c1ccc(OCC2CCN(c3ccncc3)CC2)cc1`: the melting point lay within 119 to 120 °C.

With `C[C@H]1c2cc(F)ccc2-c2ccc(F)cc2N1S(=O)(=O)c1ccc(O)cc1`, the melting point fell in the range of 194 to 196 °C.

`Cc1c(Cc2ccccc2)c(=O)oc2cc(OCC3=NNN(C)N3)cc(OCC3=NNN(C)N3)c12` came in with a melting point of 71 to 76 °C.

For the molecule `COc1ccc(-n2c(=O)n(OCc3ccccc3)c(=O)c3cc(F)c(N4CCCC4)nc32)cc1`, the melting point lay within 186 to 188 °C.

Molecule `C/C(=C(\C#N)C(N)=S)N1CCC(Cc2ccccc2)CC1` yielded a melting point of 151 to 154 °C.

Turning to `CC(=O)c1cccc(NC(=O)NCC(=O)N(CC(=O)N2CCCc3ccccc32)c2ccccc2)c1`, the melting point worked out at 130 °C.

`CC(C)c1ccc(N2Cc3ccc([N+](=O)[O-])cc3C2=O)cc1` returned a melting point of 225 to 227 °C.

As for `O=C1CCC(N2Cc3c(OCc4ccc(Cl)cc4)cccc3C2=O)C(=O)N1` (stereo not drawn), the melting point lay within 224 to 226 °C.

Consider `CCOC(=O)c1sc2ccc(O)c(C=O)c2c1Cl`, for which the melting point was 128 to 130 °C.

The molecule `CCOC(CNC(=N)NN1CCc2cc(Cl)ccc21)OCC` came in with a melting point of 163 to 165 °C.

`S=C(Cc1ccccc1)n1c(-c2cscn2)nc2ccccc21` yielded a melting point of 122 to 123 °C.

Turning to `CC(C)(/C=C/I)C(=O)Nc1ccc(Cl)cc1`, the melting point lay within 145 to 146 °C.

Regarding `C=CCNC(=S)NNCC1CC2c3cccc4[nH]cc(c34)CC2N(C)C1` (stereo not drawn), the melting point lay within 207 to 208 °C.

Turning to `O=[N+]([O-])c1ccccc1Nc1cccc(Nc2ccc(C(F)(F)F)cc2[N+](=O)[O-])c1`, the melting point was 95 to 98 °C.

In turn, `COc1ccc(-c2nnn(-c3ccc(C(F)(F)F)cc3Cl)c2CO)cc1` registered a melting point of 131 to 132 °C.

As for `CCOc1cc(OCC)c2c(c1)S(=O)(=O)N(COc1cc(C(F)(F)F)nn1-c1ccccc1)C2=O`, the melting point is 159 to 160 °C.

The molecule `CC(=O)N[C@@H]1CCCC[C@H]1Nc1nc(Nc2ccc3c(c2)C(C)(C)CCC(=O)N3)ncc1Cl` registered a melting point of 227 °C.

For the molecule `CSc1noc(-c2ccc(OCCCc3ccccc3)cc2)c1C#N`, the melting point was in the range of 99 to 100 °C.

Take `CC(=O)Nc1cc([N+](=O)[O-])c(F)cc1Cl`: the melting point was 158 to 160 °C.

In the case of `O=C1NN=C(c2cccc(Br)c2)CC1O` (stereo not drawn), the melting point lay within 158 to 161 °C.

In turn, `CCCCCCCCC(=O)NCc1ccc(C(=O)O)cc1` yielded a melting point of 178 to 180 °C.

The molecule `O=C(NC(NC(=S)Nc1cccnc1)C(F)(F)F)c1ccc(Cl)cc1` (stereo not drawn) returned a melting point of 147 to 149 °C.

As for `COc1ccccc1-c1cc2c(Nc3cccc(Cl)c3)ncnc2[nH]1`, the melting point worked out at 221 °C.
